The structures appear in SMILES notation.

Usually inhibition in vivo stands for how much of the control response was suppressed.

In the first assay the test system is Gallus gallus. The assay is described as follows: Antiemetic activity against copper sulfate-induced emesis in young chicks assessed as decrease in retching at 20 mg/kg, ip measured for 10 mins. The format is functional. The settings on record: route intraperitoneal.
On to `O=C(CCc1ccccc1)CC(O)CCc1ccc(O)cc1` (stereo not drawn), for which the inhibition in vivo at 20 mg/kg came to 71%.

Take `COc1ccc(-c2oc3cc(O)cc(O)c3c(=O)c2O)cc1` [KAEMPFERIDE]: the inhibition in vivo at 20 mg/kg came out at 63.3%.

On to `O=c1c(O)c(-c2ccccc2)oc2cc(O)cc(O)c12` [GALANGIN], for which the inhibition in vivo at 20 mg/kg worked out at 25.4%.

The subject of the next assay is Gallus gallus. The assay is described as follows: Antiemetic activity against copper sulphate-induced emesis in young chicks assessed as decrease in retching at 50 mg/kg, ip measured for 10 mins. The format is functional. The settings on record: route intraperitoneal.
As to `COc1cc(CC[C@@H](O)CC(=O)CCc2ccc(O)cc2)ccc1O`, the inhibition in vivo at 50 mg/kg worked out at 38.3%.

`COc1cc(CCC(=O)C[C@H](O)CCc2ccc(O)cc2)ccc1O`: the inhibition in vivo at 50 mg/kg is 12.4%.

Regarding `CCCCCCCCCCCCCCCC(=O)OC[C@H]1O[C@@H](O[C@H]2CC[C@@]3(C)C(=CC[C@H]4[C@@H]5CC[C@H]([C@H](C)CC[C@H](CC)C(C)C)[C@@]5(C)CC[C@@H]43)C2)[C@H](O)[C@@H](O)[C@@H]1O`, the inhibition in vivo at 50 mg/kg turned out to be 50.9%.

Take `Oc1ccc(CC[C@@H](O)C[C@H](O)CCc2ccccc2)cc1`: the inhibition in vivo at 50 mg/kg is 37.7%.

As for `COc1cc(CCC(O)CC(O)CCc2ccccc2)ccc1O` (stereo not drawn), the inhibition in vivo at 50 mg/kg worked out at 45.7%.

For the origin of these results see ChEMBL document CHEMBL1150636, “Antiemetic principles of Alpinia officinarum” (2002).
